The subject of series [1] is T. b. brucei strain 427 (bloodstream forms). Description: Anti-trypanosomal activity on T. brucei (resazurin growth inhibition, 3 days). Type of series: cell-based, Trypanosoma brucei. From the text:
To identify inhibitors of T. brucei growth, we conducted a screening of a proprietary library consisting of 440 purified natural products isolated from medicinal plants at the CNU laboratories. […] Nevertheless, since, according to the 5th rule, natural products may also represent exceptions from the other rules, all compounds were submitted to antiparasitic screening performed at a single concentration of 5 ppm (µg/mL) of each purified natural product.
T. b. brucei strain 427 (bloodstream forms) were cultivated at 37 °C with 5% CO2 atmosphere in HMI-9 medium supplemented with 10% FBS. […] After the incubation, the parasites were exposed to 120 µM of resazurin sodium salt for 5 h. Then, the parasites were fixed with 4% PFA and the assay plates were read by Victor 3 (PerkinElmer, Waltham, MA, USA) at 530 nmEx/590 nmEm. Pentamidine was used as a reference drug and DMSO 0.5% was used as a drug-negative control.
A general note: Resazurin is reduced to fluorescent resorufin, in cell work by metabolically active cells.

Series [2] can be described thus: Cytotoxicity assay (resazurin, 3 days), HEK293T. Particulars: human. It is filed as cell-based, human. As for the experimental part: (§1) HEK293T and HepG2 cells were cultured at 37 °C with 5% CO2 in Dulbecco’s modified eagle medium containing 10% FBS. Both cell lines were plated individually in 384 well plates (4000 cells per well) and the natural compounds (two fold 10 points serial dilution starting from 5 ppm) were added for 3 days of incubation.

Another series deals with HEK293T cells. Description: Cytotoxicity assay (resazurin, 3 days), HEK293T. Particulars: for s.i (selectivity index) HEK239T: CC50 (HEK293T)/IC50 (T. brucei). It is filed as cell-based, human. As for the experimental part: as §1
The nature of series [3]: Cytotoxicity assay (resazurin, 3 days), HepG2. Type of series: cell-based, human. Particulars: human. As to the method: as §1
The subject of the next series is HepG2 cells. Description: Cytotoxicity assay (resazurin, 3 days), HepG2. It is filed as cell-based, human. Particulars: for s.i (selectivity index) HepG2: CC50 (HepG2)/IC50 (T. brucei). As for the experimental part:
as §1

In another series the test system is Trypanosoma. Also on record: method as in PMID 16569852, PMID 20004045. Particulars: cited from earlier work.
Setting [4] is: Trypanosoma brucei, 72 h, T. b. brucei strain 427 bloodstream forms, 3 days, mean ± SD, read-out: T. brucei IC50.
The mark [5] stands for this setting: Trypanosoma brucei, -log IC50 [M], experimental, read-out: pIC50 Tbr(exp) (converted).
The mark [6] stands for this setting: T. b. brucei strain 427 bloodstream forms, 3 days, mean ± SD, read-out: T. brucei IC50.

For orientation: CC50 means the concentration that lowers cell viability or growth by half.

Where two headings read alike, the source gives them in different places. Where only a bound is given, the exact number is not on record here.

On to `O=C(/C=C/c1ccc(O)cc1)CC(=O)/C=C/c1ccc(O)cc1` [Compound 1, bisdemethoxycurcumin], for which the IC50 was 9.84e-06 ± 8.4e-07 M in series [1] (setting [4]) and 9.84e-06 M in series [1] (setting [5]). The CC50 at 3 days in series [2] and in series [3] was greater than 32.5 µM in each case. Also, the “s.i (selectivity index) HEK239T” value in the series on HEK293T cells is recorded as greater than 3.30. In the series on HepG2 cells, the “s.i (selectivity index) HepG2” value was greater than 3.30. Further, the “anti-trypanosomal activity previously reported” value with Trypanosoma is recorded as “anti-trypanosomal activity”.

As to `COc1ccc([C@@H](O)[C@@H](C)Oc2ccc([C@H]3O[C@H](c4ccc(O[C@H](C)[C@H](O)c5ccc6c(c5)OCO6)c(OC)c4)[C@H](C)[C@H]3C)cc2OC)cc1OC` [Compound 14, manassantin B], the IC50 was 3.54e-06 ± 4.9e-07 M in series [1] (setting [6]), less than 5e-06 M in series [1] (setting [4]) and 3.54e-06 M in series [1] (setting [5]). In addition, the values for the cytotoxic concentration (CC50) at 3 days in series [2] and in series [3] were greater than 11 µM and greater than 13.9 µM, respectively. Moreover, in the series with HEK293T cells, the “s.i (selectivity index) HEK239T” value is greater than 3.12. Moreover, in the series with HepG2 cells, the “s.i (selectivity index) HepG2” value is greater than 3.93.

For the compound `C=C(C)[C@H](CC=C(C)C)Cc1c(O)cc(O)c2c1O[C@H](c1ccc(O)cc1O)CC2=O` [Compound 15, kushenol F], in series [1] (setting [5]), the IC50 is 1.37e-06 M. Besides, the CC50 at 3 days in series [2] and in series [3] was greater than 23.8 µM throughout. Further, the “s.i (selectivity index) HEK239T” value in the series with HEK293T cells is recorded as greater than 17.34. Besides, in the series with HepG2 cells, the “s.i (selectivity index) HepG2” value was greater than 17.34.

Regarding `O=c1cc(-c2ccc(O)cc2)oc2cc(O)cc(O)c12` [Compound 16, apigenin], the IC50 in series [1] (setting [6]) was 1.1e-05 ± 2.64e-06 M; in series [1] (setting [4]), greater than 1e-05 M; in series [1] (setting [5]), 1.1e-05 M. Besides, the CC50 at 3 days in series [2] and in series [3] was greater than 37 µM throughout. For the same compound, in the series with HEK293T cells, the “s.i (selectivity index) HEK239T” value is given as greater than 3.38. Moreover, the “s.i (selectivity index) HepG2” value with HepG2 cells is listed as greater than 3.38. The “anti-trypanosomal activity previously reported” value in the series with Trypanosoma is “anti-trypanosomal activity”.

For `COc1ccc(-c2cc(=O)c3c(O)c(OC)c(O)cc3o2)cc1OC` [Compound 17, eupatilin], the IC50 in series [1] (setting [4]) is 8.14e-06 ± 1.37e-06 M; in series [1] (setting [5]) it was 8.15e-06 M. In addition, the CC50 at 3 days in series [2] and in series [3] was greater than 29.1 µM in each case. In addition, the “s.i (selectivity index) HEK239T” value in the series on HEK293T cells is given as greater than 3.58. Besides, the “s.i (selectivity index) HepG2” value in the series on HepG2 cells is greater than 3.58.

On to `CC(C)=CCc1c(-c2ccc(O)cc2O)oc2c3c(cc(O)c2c1=O)OC(C)(C)C=C3` [Compound 18, morusin], for which the values for the IC50 in series [1] (setting [6]), in series [1] (setting [4]) and in series [1] (setting [5]) were 3.4e-06 ± 1.5e-07 M, less than 5e-06 M and 3.4e-06 M, respectively. The CC50 at 3 days in series [2] and in series [3] was greater than 23.7 µM in each case. The “s.i (selectivity index) HEK239T” value in the series on HEK293T cells was greater than 6.98. Besides, in the series with HepG2 cells, the “s.i (selectivity index) HepG2” value is listed as greater than 6.98.

As for `O=C1c2ccc(O)cc2OC[C@H]1Cc1ccc(O)c(O)c1` [Compound 19, 3-deoxysappanone B], the IC50 in series [1] (setting [4]) was 5.8e-06 ± 7e-08 M; in series [1] (setting [5]) it was 5.79e-06 M. Besides, the CC50 at 3 days in series [2] and in series [3] was greater than 35 µM throughout. Also, the “s.i (selectivity index) HEK239T” value in the series with HEK293T cells is greater than 6.04. Also, the “s.i (selectivity index) HepG2” value with HepG2 cells is greater than 6.04.

Turning to `CC(C)=CCc1c(O)c(CC=C(C)C)c2occ(-c3ccc(O)c(O)c3)c(=O)c2c1O` [Compound 20, 6,8-diprenylorobol], the IC50 in series [1] (setting [5]) is 5.2e-07 M. Also, the CC50 at 3 days in series [2] and in series [3] was greater than 24.1 µM in each case. Also, the “s.i (selectivity index) HEK239T” value with HEK293T cells is greater than 46.34. Further, in the series on HepG2 cells, the “s.i (selectivity index) HepG2” value was greater than 46.34.

With `O=c1c(-c2ccc(O)cc2)coc2cc(O[C@@H]3O[C@H](CO)[C@@H](O)[C@H](O)[C@H]3O)cc(O)c12` [Compound 21, genistin], the IC50 is 3.31e-06 ± 7.5e-07 M in series [1] (setting [6]), less than 5e-06 M in series [1] (setting [4]) and 3.31e-06 M in series [1] (setting [5]). The CC50 at 3 days in series [2] and in series [3] was greater than 23.1 µM throughout. Also, the “s.i (selectivity index) HEK239T” value in the series on HEK293T cells is given as greater than 6.99. Also, the “s.i (selectivity index) HepG2” value with HepG2 cells is reported as greater than 6.99.

As for `O=c1c(-c2ccc(O[C@@H]3O[C@H](CO)[C@@H](O)[C@H](O)[C@H]3O)cc2)coc2cc(O)cc(O)c12` [Compound 22, sophoricoside], the IC50 was 6.5e-06 ± 5.2e-07 M in series [1] (setting [4]) and 6.5e-06 M in series [1] (setting [5]). The CC50 at 3 days in series [2] and in series [3] was greater than 23.1 µM in each case. In addition, the “s.i (selectivity index) HEK239T” value in the series with HEK293T cells was greater than 3.56. Also, the “s.i (selectivity index) HepG2” value in the series on HepG2 cells is reported as greater than 3.56.

In the case of demethoxycurcumin [Compound 2], in series [1] (-log IC50 [M], experimental), the “pIC50 Tbr(exp)” value worked out at 5.143. Further, the IC50 in series [1] (setting [6]) was 7.19e-06 ± 1.02e-06 M. Besides, the CC50 with HEK293T cells (HEK293T cells, 3 days, > = highest concentration tested (5 ppm), read-out: Cytotoxicity CC50 Values HEK239T) was greater than 21.4 µM; with HepG2 cells (HepG2 cells, 3 days, > = highest concentration tested (5 ppm)), greater than 29.6 µM. For the same compound, in the series with Trypanosoma, the “anti-trypanosomal activity previously reported” value is given as “anti-trypanosomal activity”.

The values are drawn from article PMC6273235, “Phenolic Constituents of Medicinal Plants with Activity against Trypanosoma brucei” (Molecules, 2016).
